Source: PubChem BioAssay AID280 (DTP/NCI, 2004)
Values joined by “and” are separate entries in the source; they are usually repeats but may differ in a detail not shown here. Equal entries are not always repeated. Inconclusive results and toxic doses are left out.

Tested on: nude mice, LOX melanoma ip, survival T/C
Experiment: NCI In Vivo Anticancer Drug Screen. Data for tumor model Human Amelanotic Melanoma (LOX) (intraperitoneal) in NU/NU BALB/C (nude) mice
Settings: endpoint: median survival time, schedule: Q04DX003 (ip), higher = longer survival
Procedure: The antitumor activity of compounds was measured in mice bearing transplantable tumors. Survival or tumor size were measured and the results are expressed as the measurement made in the treated group (T) divided by the measurement made in the vehicle treated control group (C). The tumor model used in this assay is Human Amelanotic Melanoma (LOX) (intraperitoneal) in NU/NU BALB/C (nude) mice

[1] = dose: 12.5 mg/kg/injection, vehicle: DMSO
[2] = dose: 12.5 mg/kg/injection, vehicle: saline with Tween-80
[3] = dose: 25.0 mg/kg/injection, vehicle: saline with Tween-80
[4] = dose: 50.0 mg/kg/injection, vehicle: saline with Tween-80
[5] = dose: 100.0 mg/kg/injection, vehicle: saline with Tween-80
[6] = dose: 200.0 mg/kg/injection, vehicle: saline with Tween-80
[7] = dose: 75.0 mg/kg/injection, vehicle: saline with Tween-80
[8] = dose: 300.0 mg/kg/injection, vehicle: saline with Tween-80
[9] = dose: 86.4 mg/kg/injection, vehicle: Klucel (hydroxypropylcellulose) (HPC)
[10] = dose: 240.0 mg/kg/injection, vehicle: Klucel (hydroxypropylcellulose) (HPC)
[11] = dose: 150.0 mg/kg/injection, vehicle: saline with Tween-80

c1ccc2[nH]c(CN(CCN(Cc3nc4ccccc4[nH]3)Cc3nc4ccccc4[nH]3)Cc3nc4ccccc4[nH]3)nc2c1
T/C (dose: 6.25 mg/kg/injection, vehicle: DMSO): 102 % of control
T/C [1]: 110 % of control
T/C (dose: 25.0 mg/kg/injection, vehicle: DMSO): 113 % of control
T/C (dose: 50.0 mg/kg/injection, vehicle: DMSO): 111 % of control

Nc1nc(Br)nc2c1ncn2C1CC(O)C(CO)O1 (stereo not given)
T/C [2]: 99 % of control
T/C [3]: 106 % of control
T/C [4]: 104 % of control
T/C [5]: 104 % of control
T/C [6]: 93 % of control

Cc1cccc(OCC(O)CN2CC2)c1 (stereo not given)
T/C [3]: 104 % of control
T/C [4]: 122 % of control and 99 % of control
T/C [5]: 121 % of control
T/C [6]: 122 % of control

C=CC1(C)CC(=O)C2(O)C(C)(O1)C(OC(C)=O)C(O)C1C(C)(C)CCC(O)C12C (stereo not given)
T/C (dose: 8.0 mg/kg/injection, vehicle: DMSO): 102 % of control
T/C (dose: 16.0 mg/kg/injection, vehicle: DMSO): 103 % of control
T/C (dose: 32.0 mg/kg/injection, vehicle: DMSO): 102 % of control
T/C (dose: 64.0 mg/kg/injection, vehicle: DMSO): 91 % of control

CNC(=O)/C=C/C1=CN2C(=O)c3ccc(C)c(O)c3NC(OC)C2C1 (stereo not given)
T/C (dose: 200.0 micrograms/kg/injection, vehicle: saline): 121 % of control

S=c1sc2ccccc2n1CN1CCOCC1
T/C [7]: 102 % of control
T/C [8]: 90 % of control

COc1cc2c(c(OC)c1OC)-c1cccc(=O)cc1C(NC(C)=O)CC2 (stereo not given)
T/C (dose: 12.5 mg/kg/injection, vehicle: saline): 104 % of control
T/C (dose: 25.0 mg/kg/injection, vehicle: saline): 122 % of control
T/C (dose: 50.0 mg/kg/injection, vehicle: saline): 110 % of control
T/C (dose: 100.0 mg/kg/injection, vehicle: saline): 106 % of control
T/C (dose: 200.0 mg/kg/injection, vehicle: saline): 103 % of control

CC(=O)NC(CCc1ccc(Cl)c(Cl)c1)c1cccc(O)c(=O)c1 (stereo not given)
T/C [9]: 98 % of control
T/C [10]: 109 % of control

CC1C(c2ccccc2)OC(N2CCOCC2)C(C)(C)CN1C (stereo not given)
T/C [7]: 105 % of control
T/C [11]: 93 % of control
T/C [8]: 90 % of control

COC12[C@@H]3N[C@@H]3CN1C1=C(C(=O)C(NCCSSCCNC3=C(C)C(=O)C4=C(C3=O)C(COC(N)=O)[C@]3(OC)C5N[C@@H]5CN43)=C(C)C1=O)[C@@H]2COC(N)=O (stereo not given in full)
T/C (dose: 1.57 mg/kg/injection, vehicle: DMSO): 121 % of control
T/C [1]: 331 % of control

S=C(NCNC(=S)c1ccncc1)c1ccncc1
T/C [7]: 104 % of control
T/C [11]: 103 % of control
T/C [8]: 106 % of control
T/C (dose: 600.0 mg/kg/injection, vehicle: saline with Tween-80): 87 % of control

CN(C)[C@@H]1C(=O)C(C(=O)NCN2CCN(C(=N)N=C(N)N)CC2)=C(O)[C@@]2(O)C(=O)C3=C(O)c4c(O)cccc4[C@@](C)(O)[C@H]3C[C@@H]12
T/C (dose: 1.25 mg/kg/injection, vehicle: suspension in saline): 114 % of control
T/C (dose: 2.5 mg/kg/injection, vehicle: suspension in saline): 107 % of control
T/C (dose: 3.6 mg/kg/injection, vehicle: suspension in saline): 112 % of control
T/C (dose: 5.0 mg/kg/injection, vehicle: suspension in saline): 114 % of control
T/C (dose: 6.0 mg/kg/injection, vehicle: suspension in saline): 105 % of control
T/C (dose: 10.0 mg/kg/injection, vehicle: suspension in saline): 103 % of control and 100 % of control
T/C (dose: 17.0 mg/kg/injection, vehicle: suspension in saline): 112 % of control
T/C (dose: 28.0 mg/kg/injection, vehicle: suspension in saline): 89 % of control

COC(=O)c1ccc(N=NN(C)COC(C)=O)cc1
T/C (dose: 30.0 mg/kg/injection, vehicle: Klucel (hydroxypropylcellulose) (HPC)): 118 % of control
T/C (dose: 51.8 mg/kg/injection, vehicle: Klucel (hydroxypropylcellulose) (HPC)): 175 % of control
T/C [9]: 193 % of control
T/C (dose: 120.0 mg/kg/injection, vehicle: Klucel (hydroxypropylcellulose) (HPC)): 193 % of control
T/C (dose: 144.0 mg/kg/injection, vehicle: Klucel (hydroxypropylcellulose) (HPC)): 262 % of control
T/C [10]: 220 % of control and 237 % of control

[NH-]C(CCC(N)=O)C(=O)O.[NH-]C(CCC(N)=O)C(=O)O.[Zn+2] (stereo not given)
T/C [2]: 94 % of control
T/C [3]: 94 % of control
T/C [4]: 118 % of control

CO[C@@]12[C@@H]3N[C@@H]3CN1C1=C(C(=O)C(NCCc3ccccn3)=C(C)C1=O)[C@@H]2COC(N)=O
T/C (dose: 1.5 mg/kg/injection, vehicle: saline with Tween-80): 187 % of control
T/C (dose: 3.12 mg/kg/injection, vehicle: saline with Tween-80): 192 % of control
T/C (dose: 3.13 mg/kg/injection, vehicle: saline with Tween-80): 159 % of control
T/C (dose: 6.25 mg/kg/injection, vehicle: saline with Tween-80): 179 % of control and 198 % of control
T/C [2]: 317 % of control and 340 % of control
T/C [3]: 317 % of control and 340 % of control

OCC1OC(n2cnc3c2NC=NC[C@H]3O)CC1O (stereo not given in full)
T/C (dose: 2.0 mg/kg/injection, vehicle: saline): 102 % of control
T/C (dose: 4.0 mg/kg/injection, vehicle: saline): 94 % of control
T/C (dose: 8.0 mg/kg/injection, vehicle: saline): 96 % of control
T/C (dose: 16.0 mg/kg/injection, vehicle: saline): 100 % of control

Cc1c(O)/c(=C\O)c2nc3c(=O)ccc(C(=O)NCCN(C)C)c3[nH]c2c1=O
T/C (dose: 25.0 mg/kg/injection, vehicle: water): 95 % of control and 97 % of control
T/C (dose: 50.0 mg/kg/injection, vehicle: water): 104 % of control and 98 % of control
T/C (dose: 86.4 mg/kg/injection, vehicle: water): 95 % of control
T/C (dose: 100.0 mg/kg/injection, vehicle: water): 101 % of control and 104 % of control
T/C (dose: 144.0 mg/kg/injection, vehicle: water): 99 % of control

CC[C@@]1(O)C(=O)OCc2c1cc1n(c2=O)Cc2cc3c(N)cccc3nc2-1
T/C (dose: 0.5 mg/kg/injection, vehicle: saline with Tween-80): 213 % of control
T/C (dose: 0.86 mg/kg/injection, vehicle: saline with Tween-80): 314 % of control
T/C (dose: 1.0 mg/kg/injection, vehicle: saline with Tween-80): 327 % of control
T/C (dose: 1.44 mg/kg/injection, vehicle: saline with Tween-80): 314 % of control
T/C (dose: 2.0 mg/kg/injection, vehicle: saline with Tween-80): 327 % of control
T/C (dose: 2.4 mg/kg/injection, vehicle: saline with Tween-80): 314 % of control
T/C (dose: 4.0 mg/kg/injection, vehicle: saline with Tween-80): 314 % of control and 327 % of control

NC(N)=NS(=O)(=O)c1ccc(NCc2c3ccccc3nc3ccccc23)cc1
T/C (dose: 600.0 mg/kg/injection, vehicle: Klucel (hydroxypropylcellulose) (HPC)): 166 % of control
T/C (dose: 1200.0 mg/kg/injection, vehicle: Klucel (hydroxypropylcellulose) (HPC)): 155 % of control

CO[C@@]12[C@@H]3N[C@@H]3CN1C1=C(C(=O)C(NCC3CCCO3)=C(C)C1=O)[C@@H]2COC(N)=O (stereo not given in full)
T/C (dose: 12.5 mg/kg/injection, vehicle: distilled water + Tween-80): 154 % of control
T/C (dose: 25.0 mg/kg/injection, vehicle: distilled water + Tween-80): 160 % of control
T/C (dose: 50.0 mg/kg/injection, vehicle: distilled water + Tween-80): 215 % of control
